Measured values taken from ChEMBL document CHEMBL4406838, “Neurobehavioral investigation and acetylcholinesterase inhibitory activity study for some new coumarin derivatives” (Eur J Med Chem, 2019).
Calls of active or inactive are those of the source. No cut-off for these calls is given here.

What was measured:
Acetylcholinesterase = Acetylcholinesterase (Homo sapiens, UniProt P22303); test: Inhibition of AChE (unknown origin) using acetylthiocholine iodide as substrate by Ellman's method
Mus musculus [1] = test: Cognitive enhancing effect in Swiss albino mouse model of STZ-induced cognition deficit assessed as increase in time spent in target quadrant at 3.7 mg/kg, po administrated for 15 days and measured at 5th day of training session for 60 secs by Morris water maze test; assay type: functional, organism-based
Mus musculus [2] = test: Neuroprotective activity in Swiss albino mouse model of STZ-induced cognition deficit assessed as reduction in Abeta42 deposition level in brain at 3.7 mg/kg, po administrated for 15 days by ELISA; assay type: functional, organism-based
Mus musculus [3] = test: Memory enhancement effect in Swiss albino mouse model of STZ-induced cognition deficit assessed as increase in exploratory preference at 3.7 mg/kg, po administrated for 15 days and measured for 5 mins by novel object recognition test; assay type: functional, organism-based
Mus musculus [4] = test: Cognitive enhancing effect in Swiss albino mouse model of STZ-induced cognition deficit assessed as reduction in escape latency time to find removed platform position at 3.7 mg/kg, po administrated for 15 days and measured for 4 days by Morris water maze test; assay type: functional, organism-based
Mus musculus [5] = test: Cognitive enhancing effect in Swiss albino mouse model of STZ-induced cognition deficit assessed as increase in spontaneous alteration at 3.7 mg/kg, po administrated for 15 days and measured for 8 mins by Y-maze test; assay type: functional, organism-based
Mus musculus [6] = test: Cognitive enhancing effect in Swiss albino mouse model of STZ-induced cognition deficit assessed as increase in time spent in target quadrant at 2.5 mg/kg, po administrated for 15 days and measured at 5th day of training session for 60 secs by Morris water maze test; assay type: functional, organism-based
Mus musculus [7] = test: Cognitive enhancing effect in Swiss albino mouse model of STZ-induced cognition deficit assessed as reduction in escape latency time to find removed platform position at 2.5 mg/kg, po administrated for 15 days and measured for 4 days by Morris water maze test; assay type: functional, organism-based
Mus musculus [8] = test: Neuroprotective activity in Swiss albino mouse model of STZ-induced cognition deficit assessed as reduction in Abeta42 deposition level in brain at 2.5 mg/kg, po administrated for 15 days by ELISA; assay type: functional, organism-based
Mus musculus [9] = test: Memory enhancement effect in Swiss albino mouse model of STZ-induced cognition deficit assessed as increase in exploratory preference at 2.5 mg/kg, po administrated for 15 days and measured for 5 mins by novel object recognition test; assay type: functional, organism-based
Mus musculus [10] = test: Cognitive enhancing effect in Swiss albino mouse model of STZ-induced cognition deficit assessed as increase in spontaneous alteration at 2.5 mg/kg, po administrated for 15 days and measured for 8 mins by Y-maze test; assay type: functional, organism-based
Mus musculus [11] = test: Cognitive enhancing effect in Swiss albino mouse model of STZ-induced cognition deficit assessed as increase in spontaneous alteration at 3.2 mg/kg, po administrated for 15 days and measured for 8 mins by Y-maze test; assay type: functional, organism-based
Mus musculus [12] = test: Memory enhancement effect in Swiss albino mouse model of STZ-induced cognition deficit assessed as increase in exploratory preference at 3.2 mg/kg, po administrated for 15 days and measured for 5 mins by novel object recognition test; assay type: functional, organism-based
Mus musculus [13] = test: Neuroprotective activity in Swiss albino mouse model of STZ-induced cognition deficit assessed as reduction in Abeta42 deposition level in brain at 3.2 mg/kg, po administrated for 15 days by ELISA; assay type: functional, organism-based
Mus musculus [14] = test: Cognitive enhancing effect in Swiss albino mouse model of STZ-induced cognition deficit assessed as reduction in escape latency time to find removed platform position at 3.2 mg/kg, po administrated for 15 days and measured for 4 days by Morris water maze test; assay type: functional, organism-based
Mus musculus [15] = test: Cognitive enhancing effect in Swiss albino mouse model of STZ-induced cognition deficit assessed as increase in time spent in target quadrant at 3.2 mg/kg, po administrated for 15 days and measured at 5th day of training session for 60 secs by Morris water maze test; assay type: functional, organism-based

Sequence of Acetylcholinesterase (P22303 whole entry): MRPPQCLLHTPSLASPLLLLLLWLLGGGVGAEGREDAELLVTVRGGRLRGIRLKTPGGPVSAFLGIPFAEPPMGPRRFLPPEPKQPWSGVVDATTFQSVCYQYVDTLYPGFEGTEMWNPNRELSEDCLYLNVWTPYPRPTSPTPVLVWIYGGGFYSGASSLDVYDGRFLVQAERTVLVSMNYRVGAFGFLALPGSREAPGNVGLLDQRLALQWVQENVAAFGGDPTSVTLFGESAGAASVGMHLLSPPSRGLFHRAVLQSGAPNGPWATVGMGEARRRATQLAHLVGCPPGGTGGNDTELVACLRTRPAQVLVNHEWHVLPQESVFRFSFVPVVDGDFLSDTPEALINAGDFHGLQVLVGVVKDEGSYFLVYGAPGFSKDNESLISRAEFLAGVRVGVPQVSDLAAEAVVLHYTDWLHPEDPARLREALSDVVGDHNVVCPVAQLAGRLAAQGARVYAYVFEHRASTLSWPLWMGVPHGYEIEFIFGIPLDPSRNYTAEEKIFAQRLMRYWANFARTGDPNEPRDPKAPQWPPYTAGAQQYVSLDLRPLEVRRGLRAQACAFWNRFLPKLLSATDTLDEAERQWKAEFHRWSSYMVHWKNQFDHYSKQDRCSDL

Row | Structure (SMILES) | IC50 (Acetylcholinesterase) [nM] | also measured
1 | CN(C)c1ccc(/C=C2/S/C(=N/c3ccc4oc(=O)ccc4c3)NC2=O)cc1 | 84 | –
2 | O=C(CNc1ccc2oc(=O)ccc2c1)N1CCOCC1 | 37 | Activity (Mus musculus [1]): Active; Activity (Mus musculus [2]): Active; Activity (Mus musculus [3]): Active; Activity (Mus musculus [4]): Active; Activity (Mus musculus [5]): Active
3 | CSc1ccc(C2SCC(=O)N2c2ccc3oc(=O)ccc3c2)cc1 (stereo not drawn) | 311 | –
4 | COc1ccc(/C=N/c2ccc3oc(=O)ccc3c2)cc1 | 135 | –
5 | CSc1ccc(/C=C2/S/C(=N/c3ccc4oc(=O)ccc4c3)NC2=O)cc1 | 151 | –
6 | O=c1ccc2cc(/N=C/c3ccccc3)ccc2o1 | 114 | –
7 | O=C(CNc1ccc2oc(=O)ccc2c1)c1ccccc1 | 148 | –
8 | O=C(CNc1ccc(F)cc1)Nc1ccc2oc(=O)ccc2c1 | 62 | –
9 | CN(C)c1ccc(/C=N/c2ccc3oc(=O)ccc3c2)cc1 | 41 | Activity (Mus musculus [6]): Active; Activity (Mus musculus [7]): Active; Activity (Mus musculus [8]): Active; Activity (Mus musculus [9]): Active; Activity (Mus musculus [10]): Active
10 | O=C1N/C(=N\c2ccc3oc(=O)ccc3c2)S/C1=C/c1ccccc1 | 94.1 | –
11 | O=C1N/C(=N\c2ccc3oc(=O)ccc3c2)S/C1=C/c1ccc(F)cc1 | 216 | –
12 | O=C1N/C(=N\c2ccc3oc(=O)ccc3c2)S/C1=C/c1ccc(Br)cc1 | 276 | –
13 | O=C(CNc1ccc2oc(=O)ccc2c1)N1CCN(c2ccccc2)CC1 | 80 | –
14 | CSc1ccc(/C=N/c2ccc3oc(=O)ccc3c2)cc1 | 172 | –
15 | COc1ccc(C2SCC(=O)N2c2ccc3oc(=O)ccc3c2)cc1 (stereo not drawn) | 71.1 | –
16 | O=c1ccc2cc(/N=C/c3ccc(Br)cc3)ccc2o1 | 56.9 | –
17 | COc1ccc(C(=O)CNc2ccc3oc(=O)ccc3c2)cc1 | 55 | Activity (Mus musculus [11]): Active; Activity (Mus musculus [12]): Active; Activity (Mus musculus [13]): Active; Activity (Mus musculus [14]): Active; Activity (Mus musculus [15]): Active
18 | O=C1CSC(c2ccc(F)cc2)N1c1ccc2oc(=O)ccc2c1 (stereo not drawn) | 102 | –
19 | O=c1ccc2cc(/N=C/c3ccc(F)cc3)ccc2o1 | 226 | –
20 | COc1ccc(NCC(=O)Nc2ccc3oc(=O)ccc3c2)cc1 | 55.2 | –
21 | COc1ccc(/C=C2/S/C(=N/c3ccc4oc(=O)ccc4c3)NC2=O)cc1 | 49.8 | –
22 | O=C1N/C(=N\c2ccc3oc(=O)ccc3c2)S/C1=C/c1ccc(Cl)cc1 | 173 | –
23 | O=c1ccc2cc(/N=C/c3ccc(Cl)cc3)ccc2o1 | 78.9 | –
